Assay results published in patent US20110213025A1, “Catheter Lock Solutions Utilizing Tocopherol and Mid-Chain Fatty Acids” (ProviFlo, LLC, priority 2009, published 2011).

Assay: saturation point of dodecanoic acid in the liquid lock components at room temperature
Assay type: physicochemical
Settings: without heating, soluble in octanoic acid, decanoic and tocopherol, weight/volume
Text: In a fifth aspect of the present invention, a hydrophobic antimicrobial catheter lock solution includes alpha-tocopherol, in a concentration of 0% to 50% by volume/volume and mid-chain fatty acids. The fatty acids may include any combination of octanoic acid (0% to 25% volume/volume), decanoic acid (0% to 12.5% volume/volume), and/or dodecanoic acid (0% to 12.5% weight/volume). The combined formula after dissolving and mixing the chosen mid-chain fatty acid(s) is adjusted to a final volume with the alpha-tocopherol so that the solution has a viscosity greater than about 3 mPa·s. The lock has a viscosity in the range of about 3-5 mPa·s. Dodecanoic acid is a solid soluble in octanoic acid, decanoic and tocopherol. Concentrations of dodecanoic acid of less than about 25% dissolve readily without heating (i.e. 25% is approximately the saturation point of dodecanoic acid at room temperature). Optimal concentrations are most easily achieved by dissolution of dodecanoic acid in octanoic acid prior to adding the tocopherol. Of course, it is also possible to mix any or all of the liquid ingredients (i.e. octanoic acid and/or decanoic acid and/or tocopherol) together first and secondarily dissolve the dodecanoic acid. Alternatively, dodecanoic acid could be mixed with any of the liquids and the remaining liquid components added depending on the concentration of dodecanoic acid. […]

## CCCCCCCCCCCC(=O)O [dodecanoic acid]
  saturation point of dodecanoic acid: about 25%
